How the values were obtained:
[1] = tested on: chronic viral hepatitis B (HBV); test: Patients with chronic viral hepatitis B; format: in vivo, human
Protocol: Previous treatment: from 17 Sep. 1997 the patient was administered with acyclovir during 21 days.

[2] = tested on: glutathione reductase, glutathione-peroxidase, glutathione-S-transferase, γ-glutamyl-transpeptidase; details: intravenous, 2 mg/kg
Protocol: In addition, the activity variation of the enzymes participating in GSSG metabolism was evaluated (glutathione reductase, glutathione-peroxidase, glutathione-S-transferase,γ-glutamyl-transpeptidase).
Activity of the enzymes participating in the GSSG metabolism (glutathione reductase: EC. 1.6.4.2; glutathione-peroxidase: EC. 1.11.1.9; glutathione-S-transferase: EC.2.5.1.18; g-glutamyl-transpeptidase: EC.2.3.2.2) were determined by the standard reagent kits produced by Boehringer Mannheim GmbH.

[3] = tested on: mice irradiated in a dose of 1 Gy; details: 5 mg/kg intraperitoneally daily for seven days, 8th day
Description: The study was designed to evaluate efficacy of seven-day daily administration of the test articles (with the dosing started two hours post-exposure) on the capability of the splenocytes from mice exposed to radiation to produce interleukin-1 (IL-1 α,b); interleukin-2 (IL-2); interleukin-3 (IL-3); interleukin-4 (IL-4); interleukin-6 (IL-6), interleukin-8 (IL-8); interleukin-10 (IL-10); interleukin-12 (IL-12); tumor necrosis factor-α, g (TNF-α, g), interferon-α, g (IFN-α,) and G-CSF, M-CSF, GM-CSF in vitro. In addition, the blood leukocyte and lymphocyte counts and the spleen and bone marrow cellularity (karyocyte count), as we well as splenic and medullary colony-stimulating capacity, were determined at the 8th day post-exposure.
Male CBA mice (18 to 20 g body weight) were irradiated with single dose of 180 kV X-rays filtered with 0.5 mm Cu (at 15 mA, distance—70 cm, duration two min. and 28 sec.). The total absorbed dose comprised approximately 1 Gy. […]
Additionally, hemopoietic colony-formation ability of spleen and bone marrow cells was assessed by the method of colony-forming unit (CFU) direct count in the spleens of irradiated singenic CBA mice receiving intravenously spleen or bone marrow cells obtained from animals of control or test groups.

HL-60 myeloid line cells = test: Growth and apoptotic DNA degradation, HL-60 cells; details: 100 mg/mL
Protocol: The HL-60 myeloid line cells were grown in RPMI-1640 medium with addition of 10% fetal calf serum. Cultivation was carried out in closed flasks, the medium volume was 12 mL, it was replaced every four days.
(§1) The effect testing for the testing articles was performed 24, 48 hours after addition into the culture.
The analysis procedure involved the following: after 24-48 hour incubation there were calculated the total cell count and the dead cell count by the Trypan blue exclusion method; afterwards the cell suspension was centrifuged (at 12.000 g, in Eppendorf test-tubes during 10 min).
The HL-60 cell culture is human cells of myeloluekosis origin defective in the p53 gene.

normal human lymphocytes = test: Growth and apoptotic DNA degradation, normal human lymphocytes; details: 100 mg/mL, 24, 48 hours
Protocol: Venous blood of healthy volunteers was collected into heparinized test-tubes, which had been tested for endotoxin. A mononuclear fraction of blood leukocytes was obtained by centrifugation in ficoll-metrizoat gradient (Histopaque, Sigma). Cell concentration was adjusted to 2×10^6 cells per 1 ml of cell culture medium (RPMI 1640), containing 20 mM HEPES, 2 mM glutamine, 50 mg/mL gentamicin and 10% fetal calf serum. Cell viability was estimated by the Trypan blue exclusion method, then the cell suspension was placed into wells of 24- and 96-well microliter plates—250,000 cells per well.
as §1
The analysis procedure involved the following: after 24-48 hour incubation there were calculated the total cell count and the dead cell count by the Trypan blue exclusion method; afterwards the cell suspension was centrifuged (at 12.000 g, in Eppendorf test-tubes during 10 min). The cell pellet was frozen and kept at −70° C. before the DNA separation. The DNA separation was conducted by Kirbi-Georgiyev phenol method. […] Then it was diluted in 10 mL of the A buffer; the DNA amount was determined by Dishe method and electrophoresis was performed in 2% agarose gel (agarose with NA grade made by “Pharmacia LKB, Biotechnology Inc” (Austria) was used). […]

CP-treated mice = test: Cyclophosphamide-induced hemo- and immunodepression, murine model; details: CP 50 mg/kg; 5 mg/kg intraperitoneally daily for five days; day 8
Description: The study was designed to evaluate the effect of a five-day long administration of the test articles on the capability of the CP-treated murine splenocytes to produce interleukin-1 (IL-1 α,b); interleukin-2 (IL-2); interleukin-3 (IL-3); interleukin-4 (IL-4); interleukin-6 (IL-6), interleukin-8 (IL-8); interleukin-10 (IL-10); interleukin-12 (IL-12); tumor necrosis factor-α, g (TNF-α, g), interferon-α, g (IFN-α, g) and G-CSF, M-CSF, GM-CSF in vitro. In addition, the blood leukocyte and lymphocyte count and the bone marrow cellularity (karyocyte count) were determined at eight days after CP administration. Some animals receiving CP were then challenged with sheep red blood cells (SRBC), and the humoral immune response to the antigen was evaluated.
Male CBA mice (180 to 200 g body weight) were given a single introperitoneal injection of CP in a dose of 50 mg/kg. Four groups of animals (with no less than 15 mice in each) were formed.
#3—animals receiving a single CP injection, which further were treated with the test article (GSSG dissolved in normal saline) in a dose of 5 mg/kg;
Twenty-four hours after the CP injection, five animals in each group were immunized with SRBC (10^7 cells in 0.5 mL of NS, intra-peritoneally).
Injections were performed during five days: once a day, daily. […]

[4] = tested on: human peripheral blood mononuclear leukocytes; details: 0.5-5000 mg/mL, ConA, 24 hours
Protocol: Oxidized glutathione (GSSG) as well as a structural analog thereof, which is a hexapeptide with a stabilized disulfide bond, were evaluated for their effect on cytokine production by human peripheral blood mononuclear leukocytes in vitro.
The leukocytic cytokine production was triggered by adding a mitogen, concanavalin A (ConA) to the cell culture immediately after introducing the test substances. In 24 hours of the cellular exposure to ConA and the test articles, the culture supernatants were sampled and stored until cytokine determination at −70° C. […]
Each concentration was established in no less than six wells by adding 50 mL of medium containing the appropriate quantity of the previously dissolved test articles. […]
Immediately after the test articles had been introduced into the cultures, 50 mL of medium containing ConA (Sigma, cell culture tested) in a quantity required for a final concentration of 4.0 mg/mL, was added to all the wells excepting three additional ones which served for evaluation of spontaneous ^3H-thymidine uptake (without ConA). […]
The filters were dried and their radioactivity (counts per minute, cpm) was determined using liquid scintillation counter, Betaplate 1205 (LKB). […]

stomach cancer = test: Patient with stomach cancer, peritoneal metastases, ascites, splenomegaly and cholestatic hepatitis
Protocol: A patient was diagnosed as having stomach neoplasm for more than two years (adenocarcinoma of moderate differentiation degree).
A decision was taken to apply GSSG drug form. The drug was injected parenterally (intramuscularly and intravenously), and additionally, the drug form was used via local injections around the tumor tissue through an endoscope. An average doses which were used for intramuscular and intravenous injections—0.1-0.5 mg/kg, and for local injections—up to 50 mg in situ. Parenteral injections of the drug were applied every other day, b.i.d. (intravenous injections at the morning, and intramuscular ones at the evening), during three weeks, and after that, two times a week during four weeks. The drug introduction through the endoscope was performed once in seven days.
The tumor was solid-like type. Stomach walls were rigid. Histology examination defined the tumor as a moderate degree differentiation adenocarcinoma. […] The drug was introduced according to the identical regime: parenterally (intramuscularly and intravenously), and additionally, the drug form was introduced via local injections around the tumor tissue through an endoscope. An average doses which were used for intramuscular and intravenous injections—0.1-0.5 mg/kg, and for local injections—up to 50 mg in situ. Parenteral injections of the drug were applied every other day, b.i.d. (intravenous injections at the morning, and intramuscular ones at the evening), during three weeks, and after that, two times in a week during four weeks. The drug introduction through the endoscope was performed once in seven days.

[5] = patient No. 4, previous treatment during 21 days
[6] = two months after treatment start

Compound	ALT after the course completion [1, 5] [mmol/h/L]	Hbs Ag degree [1, 5]	bilirubin after the course completion [1, 5] [mmoVL]	liver protrusion beyond the costal arch after the treatment course ([1]; patient No. 3 (GSSG, before 2 cm), patient No. 4 (GSSG.Pt, before 2.5 cm)) [cm]	activity of the enzymes participating in the thiol (glutathione) metabolism [2]	cytokine and hemopoietic factor production by splenocytes [3]	DNA electrophoresis (apoptotic ladder) (HL-60 myeloid line cells; 24 and 48 hours)	high molecular DNA in the apoptotic ladder (HL-60 myeloid line cells; FIG. 14)	dead HL-60 cell quantity (HL-60 myeloid line cells; Trypan blue exclusion)	normal cell proliferation (normal human lymphocytes)	cytokine and hemopoietic factor production by splenocytes (CP-treated mice)	cytokine production by human mononuclear leukocytes [4]	tumor size decrease (stomach cancer; fibrogastrocopy data) [%]	hematology and blood chemistry indices (stomach cancer; [6])	liver protrusion below the costal arch (stomach cancer; [6]) [cm]	tumor extent at fibrogastroscopy (stomach cancer; two months after treatment start, before: about 8 cm (GSSG course), about 6 cm (GSSG.Pt course)) [cm]
Nc1nc2c(ncn2COCCO)c(=O)[nH]1 [acyclovir]	2.1	did not change	32													
bis-(γ-L-glutamyl)-L-cysteinyl-bis-glycine [GSSG]				0.5	increases approximately two times the activity	less significant effect	revealed the DNA oligonucleosomic degradation	contained considerable amount of the high molecular DNA	reliably lower than the one after the GSSG.Pt effect	stimulated the normal cell proliferation	only exiguous stimulating effect	statistically significant and dose-dependent stimulation of the cytokine production	40	substantial improvement of hematology and blood chemistry indices	3	4.8

Source: patent publication US7371411B2, “Methods for production of the oxidized glutathione composite with CIS-diamminedichloroplatinum and pharmaceutical compositions based thereof regulating metabolism, proliferation, differentiation and apoptotic mechanisms for normal and transformed cells” (Novelos Therapeutics, Inc., priority 1998, dated 2008)
